Data as given in publication PMC5602538, “Assessment of the Drug Interaction Potential of Unconjugated and GalNAc3-Conjugated 2′-MOE-ASOs” (Molecular Therapy. Nucleic Acids, 2017).
{GalNAc3} = trishexylamino-C6 triantennary GalNAc conjugate; e = 2'-O-(2-methoxyethyl) (MOE); d = 2'-deoxy (DNA)

Columns and labels:
[1] = biological target: T1, CYP1A2 (Homo sapiens, UniProt P05177); test: CYP1A2 inhibition in cryopreserved human hepatocyte suspensions (phenacetin probe); format: in vitro ADME; conditions: human hepatocytes
T1 construct: Human hepatocytes (pooled from 5 donors); host or cells: cryopreserved human hepatocytes in suspension, pooled from 5 donors
Method: (§1) Preincubations were performed in 50 μL of Williams’ Medium E with 2 mM salicylamide. The salicylamide was included to reduce possible phase II conjugation to the precursor phase I metabolites. […] Human hepatocytes (pooled from 5 donors) were thawed and prepared according to the vendor’s protocol. […] Incubations were carried out at 37°C with 5% CO2. The incubation time was 45 min for phenacetin, diclofenac, dextromethorphan, midazolam, bupropion, chlorzoxazone, and testosterone and 90 min for paclitaxel and (S)-mephenytoin. The reactions were stopped by adding 200 μL of ice-cold acetonitrile (can) with tolbutamide (100 ng/mL) as the internal standard to 100 μL of hepatocyte suspension (1:2, v/v). The 96-well plate was then vortexed at 1,700 rpm for 3 min and centrifuged at 3,500 rpm for 10 min at 20°C. The supernatants were analyzed using liquid chromatography-tandem MS (LC-MS/MS).

[2] = system: OAT1, OAT3, OCT1, OCT2, OATP1B1, OATP1B3, BCRP, P-gp, and BSEP; test: Inhibition studies of major SLC and ABC transporters, all transporters evaluated; format: in vitro ADME; conditions: 100 μM ASO
Method: A 96-well cell culture plate containing a monolayer of MDCK-II cells grown on a permeable support and a corresponding receiver tray was used. The basolateral compartment of the culture plate and wells were washed with warm HBSS three times, with wells of the culture plate serving as the apical compartment. The wash was aspirated by adding 150 μL of 37°C HBSS to both compartments. Plates were incubated at 37°C with orbital shaking at 60 rpm for 15 min for OAT1, OAT3, OCT1, OCT2, OATP1B1, and OATP1B3 (±5 min). The pre-incubation buffer from both compartments was aspirated and 150 μL of the following was added to the basal compartment. For the probe substrate transport assay, HBSS in each well contained one of following probe substrates (positive control for transport), OCT1, 2 μM [^3H]-MPP^+; OCT2, 10 μM [^14C]-metformin; OAT1, 2 μM [^3H]-p-aminohippurate; OAT3, 10 μM [^3H]-p-aminohippurate; OATP1B1, 2 μM [^3H]-estradiol-17 β-D-glucuronide; and OATP1B3, 2 μM [^3H]-cholecystokinin octapeptide (CCK-8). […] Inhibition studies contained HBSS in each well, the probe substrate, and 100 μM of each test article, whereas substrate studies contained HBSS in each well and 10 μM of each test article. Plates were incubated at 37°C with orbital shaking at 60 rpm for 5 min. Both sides of the permeable support were washed four times with ice-cold PBS and 60 μL of cell extraction solution was added to each well. Plates were agitated for 15 min at 120 rpm, after which a 30-μL sample of the extract was collected. Samples containing probe substrate were added to 200 μL of scintillation fluid and counted on a 1450 Microbeta (PerkinElmer), whereas samples containing the test article were kept frozen. Test article concentrations, including control samples, were evaluated by an LC-MS method.
MDCK-MDR1 cells and MDCK-II cells transfected with BCRP were washed with HBSS at 37°C. Wells of the culture plate served as the apical compartment, and 150 μL of HBSS solutions was added to the apical wells. […]

[3] = biological target: T2, CYP2B6 (Homo sapiens, UniProt P20813); conditions: hepatocytes
T2 sequence (P20813 1-491): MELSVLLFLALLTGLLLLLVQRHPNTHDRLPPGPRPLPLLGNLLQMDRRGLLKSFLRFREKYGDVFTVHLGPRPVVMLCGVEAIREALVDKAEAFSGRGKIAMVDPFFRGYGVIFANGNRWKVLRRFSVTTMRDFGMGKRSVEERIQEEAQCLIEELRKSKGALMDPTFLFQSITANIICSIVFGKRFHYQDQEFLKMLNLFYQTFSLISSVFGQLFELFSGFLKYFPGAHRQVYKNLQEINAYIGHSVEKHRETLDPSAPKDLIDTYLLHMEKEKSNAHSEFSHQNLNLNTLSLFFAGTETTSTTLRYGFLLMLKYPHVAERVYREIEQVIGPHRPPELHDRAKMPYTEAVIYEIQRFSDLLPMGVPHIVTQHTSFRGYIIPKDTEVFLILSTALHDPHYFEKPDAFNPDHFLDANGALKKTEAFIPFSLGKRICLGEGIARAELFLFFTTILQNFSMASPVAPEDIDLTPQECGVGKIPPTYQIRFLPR
Method: as §1

[4] = biological target: T3, CYP2C8 (Homo sapiens, UniProt P10632); conditions: hepatocytes
T3 sequence (P10632 1-490): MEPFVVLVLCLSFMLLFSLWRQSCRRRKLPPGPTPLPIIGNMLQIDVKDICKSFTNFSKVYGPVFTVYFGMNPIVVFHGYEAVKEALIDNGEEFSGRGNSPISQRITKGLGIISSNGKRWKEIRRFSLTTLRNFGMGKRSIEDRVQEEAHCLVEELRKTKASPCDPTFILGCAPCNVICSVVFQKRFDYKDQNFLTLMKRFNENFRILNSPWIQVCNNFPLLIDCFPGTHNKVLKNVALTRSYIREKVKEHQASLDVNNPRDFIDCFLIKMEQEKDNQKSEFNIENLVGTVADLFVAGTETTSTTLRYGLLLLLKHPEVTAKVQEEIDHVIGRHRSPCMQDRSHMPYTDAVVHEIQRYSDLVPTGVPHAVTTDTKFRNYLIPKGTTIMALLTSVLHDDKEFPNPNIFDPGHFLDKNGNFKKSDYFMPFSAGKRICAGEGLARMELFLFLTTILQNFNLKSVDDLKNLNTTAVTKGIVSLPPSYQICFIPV
Method: as §1

[5] = biological target: CYP2C9 (Homo sapiens, UniProt P11712); conditions: hepatocytes
Method: as §1

[6] = biological target: CYP2D6 (Homo sapiens, UniProt P10635); conditions: hepatocytes
Method: as §1

[7] = biological target: CYP2E1 (Homo sapiens, UniProt P05181); conditions: hepatocytes
Method: as §1

[8] = biological target: CYP3A4 (Homo sapiens, UniProt P08684); conditions: hepatocytes
CYP3A4, sequence (P08684 whole entry): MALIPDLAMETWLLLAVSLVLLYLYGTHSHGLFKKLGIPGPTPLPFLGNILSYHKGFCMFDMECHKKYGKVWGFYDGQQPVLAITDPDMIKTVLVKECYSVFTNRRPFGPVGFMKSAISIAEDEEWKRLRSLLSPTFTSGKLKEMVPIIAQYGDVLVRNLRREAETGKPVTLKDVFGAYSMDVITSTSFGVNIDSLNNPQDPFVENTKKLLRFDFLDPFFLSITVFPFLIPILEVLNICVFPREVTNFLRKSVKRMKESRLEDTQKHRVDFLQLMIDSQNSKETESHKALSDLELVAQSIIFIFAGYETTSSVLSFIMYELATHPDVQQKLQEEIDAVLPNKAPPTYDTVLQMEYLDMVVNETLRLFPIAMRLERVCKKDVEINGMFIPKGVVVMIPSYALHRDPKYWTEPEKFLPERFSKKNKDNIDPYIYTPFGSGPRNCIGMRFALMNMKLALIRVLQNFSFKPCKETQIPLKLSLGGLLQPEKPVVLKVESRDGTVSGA
Method: as §1

CYP2E1, sequence (P05181 whole entry): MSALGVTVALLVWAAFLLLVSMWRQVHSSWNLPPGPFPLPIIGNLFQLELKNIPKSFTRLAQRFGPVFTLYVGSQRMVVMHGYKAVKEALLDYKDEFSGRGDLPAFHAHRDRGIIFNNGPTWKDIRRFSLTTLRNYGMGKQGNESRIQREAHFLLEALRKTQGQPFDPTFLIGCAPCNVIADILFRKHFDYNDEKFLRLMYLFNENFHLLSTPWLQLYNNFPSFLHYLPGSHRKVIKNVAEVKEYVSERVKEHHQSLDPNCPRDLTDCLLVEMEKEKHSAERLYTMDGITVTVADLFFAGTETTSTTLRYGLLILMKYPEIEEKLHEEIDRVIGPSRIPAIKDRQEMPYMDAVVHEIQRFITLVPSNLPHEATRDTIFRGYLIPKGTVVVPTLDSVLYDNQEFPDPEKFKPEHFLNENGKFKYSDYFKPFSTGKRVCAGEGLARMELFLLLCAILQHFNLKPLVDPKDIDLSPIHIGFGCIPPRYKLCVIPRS
T1 sequence (P05177 whole entry): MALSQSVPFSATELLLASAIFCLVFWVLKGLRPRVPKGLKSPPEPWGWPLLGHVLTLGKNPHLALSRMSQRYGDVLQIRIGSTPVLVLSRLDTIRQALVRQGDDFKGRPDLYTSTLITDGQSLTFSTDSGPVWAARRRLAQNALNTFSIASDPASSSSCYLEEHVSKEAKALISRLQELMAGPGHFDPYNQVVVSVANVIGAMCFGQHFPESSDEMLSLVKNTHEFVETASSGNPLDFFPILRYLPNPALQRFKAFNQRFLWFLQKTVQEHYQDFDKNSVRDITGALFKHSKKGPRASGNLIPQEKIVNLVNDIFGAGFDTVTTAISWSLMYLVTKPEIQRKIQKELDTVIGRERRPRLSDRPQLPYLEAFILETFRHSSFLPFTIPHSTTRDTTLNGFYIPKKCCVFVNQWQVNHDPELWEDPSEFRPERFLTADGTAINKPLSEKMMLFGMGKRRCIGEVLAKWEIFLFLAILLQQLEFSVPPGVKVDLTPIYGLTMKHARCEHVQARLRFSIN
CYP2C9, sequence (P11712 whole entry): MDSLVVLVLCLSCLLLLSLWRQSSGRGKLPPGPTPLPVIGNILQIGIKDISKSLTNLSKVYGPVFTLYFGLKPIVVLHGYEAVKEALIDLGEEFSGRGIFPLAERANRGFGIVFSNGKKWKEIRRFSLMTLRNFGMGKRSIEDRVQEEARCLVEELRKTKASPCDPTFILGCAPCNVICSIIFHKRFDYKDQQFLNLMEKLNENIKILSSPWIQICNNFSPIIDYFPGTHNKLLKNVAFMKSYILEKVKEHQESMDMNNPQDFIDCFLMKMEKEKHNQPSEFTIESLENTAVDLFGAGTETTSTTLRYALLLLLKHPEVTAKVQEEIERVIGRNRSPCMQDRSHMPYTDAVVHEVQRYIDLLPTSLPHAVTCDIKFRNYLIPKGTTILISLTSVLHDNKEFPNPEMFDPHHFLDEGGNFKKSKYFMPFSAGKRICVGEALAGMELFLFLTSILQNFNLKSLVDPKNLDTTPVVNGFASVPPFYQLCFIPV
CYP2D6, sequence (P10635 whole entry): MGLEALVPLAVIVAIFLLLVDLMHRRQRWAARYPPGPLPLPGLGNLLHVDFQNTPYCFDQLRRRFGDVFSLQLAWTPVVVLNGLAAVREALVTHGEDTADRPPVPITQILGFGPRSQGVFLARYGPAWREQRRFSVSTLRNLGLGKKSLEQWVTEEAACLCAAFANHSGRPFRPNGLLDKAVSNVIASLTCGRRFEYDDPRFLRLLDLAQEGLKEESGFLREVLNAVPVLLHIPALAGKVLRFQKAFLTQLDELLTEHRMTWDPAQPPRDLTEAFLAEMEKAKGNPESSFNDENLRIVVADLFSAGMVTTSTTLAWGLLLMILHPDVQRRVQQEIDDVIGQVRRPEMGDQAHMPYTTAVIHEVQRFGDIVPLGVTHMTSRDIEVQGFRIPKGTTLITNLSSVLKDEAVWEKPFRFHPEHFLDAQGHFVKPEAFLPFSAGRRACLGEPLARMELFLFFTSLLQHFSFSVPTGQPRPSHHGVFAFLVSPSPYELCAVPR

Row | Substance | IC50 [1] | Inhibitor of BCRP, P-gp, OAT1, OAT3, OCT1, OCT2, OATP1B1, OATP1B3, or BSEP (conclusion) [2] | IC50 [3] | IC50 [4] | IC50 [5] | IC50 [6] | IC50 [7] | IC50 [8]
1 | ISIS 304801: 20-mer (5-10-5) 2′-MOE gapmer PS backbone antisense inhibitor of apoC-III, sequence AGCTTCTTGTCCAGCTTTAT (sugars from the 5' end e5 d10 e5, all phosphorothioate, methylation of C not given here) | > 100 µM | not considered inhibitors | > 100 µM | > 100 µM | > 100 µM | > 100 µM | > 100 µM | > 100 µM
2 | ISIS 681257: 20-mer 2′-MOE gapmer PS/PO mixed backbone ASO conjugated to 5′-trishexylamino GalNAc3, targets Lp(a), sequence TGCTCCGTTGGTGCTTGTTC (5' {GalNAc3}, sugars by position and backbone not given here; 2'-MOE gapmer with mixed PS/PO backbone) | – | not considered inhibitors | – | – | – | – | – | –
3 | ISIS 420915: 20-mer 2′-MOE gapmer PS backbone antisense inhibitor of transthyretin, sequence TCTTGGTTACATGAAATCCC (all phosphorothioate, sugars by position and methylation of C not given here; 2'-MOE gapmer) | > 100 µM | not considered inhibitors | > 100 µM | > 100 µM | > 100 µM | > 100 µM | > 100 µM | > 100 µM
